Earlier results in patent publication US20230086007A1, “USE OF DENATONIUM BENZOATE AS A SEED TREATMENT FOR CROPS AS BIRD AND/OR INSECT REPELLENT” (KWS SAAT SE & Co. KGaA, priority 2020, published 2023).

System: maize
Details: maize seed treatment; cited from earlier work

Compound: CN(C)C(=S)SSC(=S)N(C)C [Thiram]
- effect on early seedling vigour: significant reduction in early seedling vigour
